System: patients suffering hair loss and numbness due to diabetic neuropathy
Assay: Repetitive topical application of minoxidil in patients suffering hair loss and numbness due to diabetic neuropathy
Format: in vivo
Settings: twice a day, approximately 1 mL per day, 2-5% minoxidil
Method: In an illustrative test with repetitive topical application of minoxidil as a VGIA 120a in patients suffering hair loss and numbness due to diabetic neuropathy, hair growth, nail growth, and temperature perception (restoration of innervation) was achieved on the leg within 2-3 weeks. The minoxidil was applied twice a day in a quantity of approximately 1 mL per day in a concentration of 2-5% minoxidil.

Nc1cc(N2CCCCC2)nc(N)[n+]1[O-] [minoxidil]
2-3 weeks: hair growth achieved on the leg (time) | temperature perception (restoration of innervation) achieved on the leg (time) | nail growth achieved (time) (leg)

Source: patent publication US20260007667A1, “TOPICAL ECTODERMAL STIMULATION” (SOLIFON PHARMACEUTICALS, INC., priority 2022, published 2026)
